According to patent US20070184165A1, “Compositions and methods for improving the efficiency of preservatives in foods” (RAD NATURAL TECHNOLOGIES LTD., priority 2003, published 2007):

Assays:
[1] = test system: mold; assay: Deterioration of whole wheat flour due to mold, measured by carbon dioxide formation; settings: for carbon dioxide formation: 22% moisture, 30° C.
Method: Whole wheat flour which contained 22% moisture was maintained at a temperature of 30° C. The deterioration due to mold formation was measured by determining the amount (%) of carbon dioxide which formed over a ten day period or until the maximum of 15-16% was attained, whichever was the sooner.

[2] = Inhibition of oxidative deterioration in soybean oil at 180° C. (hexanal and trans-decadienal formed); settings: four hours, 0.02%
Method: (c) Inhibition of oxidative deterioration in soybean oil at 180° C. (four hours) was determined by dissolving Origanox™ OS-A, rosemary oil or TBHQ in the soybean oil and determining the amount of hexanal and trans-decadienal formed in the product, compared with a control in which no antioxidant was used.

[3] = Freshness of cured beef by formation of malondialdehyde
Method: (d) Cured beef was treated with “Origanox™ WS-A” (b(ii), above). The thus-treated cured beef product contained approximately 32.5 ppm sodium rosmarinate and 500 ppm ascorbic acid. The higher proportion of ascorbic acid in this case was to inhibit the formation of toxic nitrosamines. The product was tested for freshness as evidenced by the formation of malondialdehyde after 1, 4 and 7 days, and compared with control (no treatment) and with other treatments.

[4] = test system: salmonella; assay: Inhibition of salmonella growth; assay type: cell-based; settings: control growth at 8 hours = 100%
Method: The inhibition of salmonella growth was determined for the title combination and this was compared with control (absence of inhibitors) and using separately, sodium rosmarinate and sodium acetate. The results are as follows, comparing the inhibition of growth effect of inhibitors, control growth being taken arbitrarily at 8 hours, as 100%: […]

[5] = Myoglobin stabilization (colour intensity) in treated fresh beef; settings: after seven days, 250 ppm
Method: (c) Fresh beef was treated, by injection, with “Origanox™ WS-A” (b)(i), above. The thus-treated fresh beef product contained approximately 32.5 ppm sodium rosmarinate and 250 ppm ascorbic acid. The product was tested for myoglobin stabilization by measuring absorption, i.e. intensity of color, at 542 nm, after seven days.

CCC(=O)[O-].CCC(=O)[O-].[Ca+2] [Ca propionate, calcium propionate]
time until maximum % carbon dioxide (maximum deterioration) was reached ([1]; 0.2%): 7 to 8 days | carbon dioxide formation ([1]; Day 0, 0.2%): 0.54% | carbon dioxide formation ([1]; Day 1, 0.2%): 0.81% | carbon dioxide formation ([1]; Day 2, 0.2%): 1.1% | carbon dioxide formation ([1]; Day 3, 0.2%): 1.3% | carbon dioxide formation ([1]; Day 4, 0.2%): 2.0% | carbon dioxide formation ([1]; Day 5, 0.2%): 3.2% | carbon dioxide formation ([1]; Day 6, 0.2%): 6.5% | carbon dioxide formation ([1]; Day 7, 0.2%): 14.6% | carbon dioxide formation ([1]; Day 8, 0.2%): 15%

CC(C)(C)c1cc(O)ccc1O [TBHQ]
% Inhibition [2]: 32%

O=C(/C=C/c1ccc(O)c(O)c1)O[C@H](Cc1ccc(O)c(O)c1)C(=O)O [sodium rosmarinate]
Formation of malondialdehyde ([3]; day 1, 32.5 ppm): 0.798 mg/kg | Formation of malondialdehyde ([3]; day 4, 32.5 ppm): 1.097 mg/kg | Formation of malondialdehyde ([3]; day 7, 32.5 ppm): 1.327 mg/kg

CC(=O)[O-].[Na+] [Sodium acetate]
% Growth ([4]; 4 hours, 1.0%): 33% | % Growth ([4]; 4 hours, 2.0%): 17% | % Growth ([4]; 8 hours, 1.0%): 75% | % Growth ([4]; 8 hours, 2.0%): 62%

O=C1O[C@H]([C@@H](O)CO)C(O)=C1O [ascorbic acid]
absorption at 542 nm [5]: 0.513 | Formation of malondialdehyde ([3]; day 1, 500 ppm): 0.788 mg/kg | Formation of malondialdehyde ([3]; day 4, 500 ppm): 1.224 mg/kg | Formation of malondialdehyde ([3]; day 7, 500 ppm): 1.944 mg/kg
